From US11679100B2, “Methods of enhancing immunity” (The Regents of the University of California, priority 2018, dated 2023) come the findings set out here.

Assay [1] has as its system LLC tumor cells. Kind of assay: Adoptive transfer of LA1-treated tumor associated macrophages co-implanted with LLC tumor cells. The assay is classed as in vivo, mice. The conditions noted are these: tumor-derived macrophages treated with LA1, mixed 1:1 with LLC cells. As for the experimental part: In vivo Macrophage Adoptive Transfer Experiments—F4/80+ cells were isolated from single cell suspensions of 700-800 mg LLC tumors from donor WT or Itgam−/− mice by FACS sorting. Primary bone marrow derived macrophages from WT or Itgam−/− mice were polarized and harvested into a single cell suspension. Alternatively, WT tumor derived macrophages were incubated with LA1 or saline. Purified macrophages were admixed 1:1 with LLC tumor cells and 5×10^5 total cells were injected subcutaneously into syngeneic host WT or Itgam−/− mice. Tumors were excised and weights were determined 14 days after inoculation.

For assay [2], the system named is human MDA-MB-231 mammary xenograft tumors. Briefly: Orthotopic MDA-MB-231 mammary xenograft model. It is filed as in vivo, mice. On the procedure: Alternatively, 5 million MDA-MB 231 human breast cancer cells were injected orthotopically in the 4th mammary fat pad of 6-week old female nude mice. The tumors were allowed to establish for 35 days (at least 0.5 cm in diameter) and the tumor bearing mice were divided into three treatment groups including, vehicle, LA1 only (i.p.; 2.0 mg/kg; daily) and Taxol only (i.p.; 2.5 mg/kg every other day). Treatment was initiated on day 35 and continued until the end-point at day 58 post-tumor when all the mice were sacrificed and tumor tissue was harvested for histological analysis. Palpable tumors were measured using digital calipers 3 times weekly during the entire experiment to develop tumor growth curves.

Assay [3] deals with LLC lung tumor. Briefly: LA1 treatment of subcutaneous LLC tumors. The assay is classed as in vivo, mice. As for the experimental part:
LA1 treatment of LLC: 7.5×10^5 LLC cells were injected subcutaneously (s.c.) into the right flank of syngeneic 6- to 8-week old WT or CD11b^−/− mice. At 5-8 days post tumor inoculation, tumor-bearing mice were divided into the following treatment groups: Vehicle (6% DMSO, 1% Tween-20 in saline), LA1 (6 mg/kg dissolved in vehicle). Vehicle and LA1 was administered by intraperitoneal injection (i.p.) daily. Tumor burden was evaluated 2-3 times a week by caliper measurements and tumor volumes were calculated using the equation (l^2×w)/2. Tumors were harvested at 3 weeks post-tumor inoculation, formalin fixed, cryopreserved in OCT, or collagenase-digested for flow cytometric analysis.
Immunohistochemistry—Tumor samples were collected and cryopreserved in O.C.T. Sections (5 μm) were fixed in 100% cold acetone, blocked with 8% normal goat serum for 2 hours, and incubated with primary antibodies at […] for 2 hours at room temperature. Sections were washed 3 times with PBS and incubated with fluorescent secondary antibodies. Primary antibodies where: F4/80 (BM8, eBioscience), CD4 (H129.19, BD Bioscience), CD8 (53-6.7, BD Bioscience), CD31 (MEC13.1, BD Bioscience), desmin (RB0914-P1, LabVision, Thermo Scientific), and anti-smooth muscle actin (SMA) (1A4, Sigma-Aldrich). Slides were counterstained with 4′,6-diamidino-2-phenylindole (DAPI) to identify nuclei. Immunofluorescence images were collected on a Nikon microscope (Eclipse TE2000-U) and analyzed using Metamorph image capture and analysis software (Version 6.3r5, Molecular Devices). Pixels/field or cell number/field were quantified in five 100× fields from 5 biological replicates. For LA1 studies, immunohistochemical staining was quantified by counting marker positive cells in 3 different areas analyzed at 40× using a light microscope for each tumor tissue (n=4−6). Tissues that were stained with fluorochrome conjugated secondary antibodies were counter stained with DAPI and analyzed using the Zeiss 700 LSM confocal microscope and Zen software (Carl Zeiss Group, Hartford, Conn.).
Alternatively, immunostaining was performed on formalin fixed, paraffin-embedded tumor tissues. Deparaffinized tissue sections (5 μm) were either stained with hemotoxylin-eosin or were subjected to antigen retrieval by steam heating in an acidic pH solution (Citrate-based, Vector Laboratories) prior to immune staining for α-SMA (clone 1A4, Fisher Scientific), MMP9 (polyclonal rabbit, Abcam), S100A8 (goat polyclonal (M-19), Santa Cruz), CD31 (clone RM0032-1D12, Abcam), or ARG1 (sc-18351, Santa Cruz) at 4° C. overnight. Sections were washed and incubated with the appropriate fluorochrome conjugated secondary antibody (Invitrogen Life Technologies, Grand Island, N.Y.) or biotinylated secondary antibodies diluted in blocking buffer for 1 hr. at RT. For sections that were stained with biotinylated secondary antibodies, signal development was accomplished by using the DAB Substrate Kit (Vector Laboratories).
Flow Cytometry Staining and Analysis—Single cell suspensions (10^6 cells in 100 μL total volume) were incubated with Aqua Live Dead fixable stain (Life Technologies, Carlsbad, Calif.), FcR-blocking reagent (BD Biosciences, San Jose, Calif.) and fluorescently labeled antibodies and incubated at 4° C. for 1 h. Primary antibodies were: BV605-F4/80 (clone BM8, Biolegend #123133, 1.25 μg/ml), Alexa 700-CD45 (clone 30-F11, eBioscience #56-0451, ×0.6 μg/ml), CD11b-APC (clone M1/70, eBioscience #17-0012, 0.3 μg/ml), FITC-Gr1 (clone RB6-8C5, eBioscience #11-5931, 3 μg/ml), eF780-CD3 (clone 145-2C11, eBioscience #47-0031, 5 μg/ml), PE-Dazzle-CD4 (clone RM4-5, Biolegend #100565, 0.4 μg/ml), and BV605-CD8 (clone 53-6.7, Biolegend #100743, 1.75 μg/ml). Multicolor FACS Analysis was performed on a BD Canto RUO 11 Color Analyzer. All data analysis was performed using the flow cytometry analysis program FloJo (Treestar).

Assay [4] deals with LLC cells and macrophages. Briefly: In vitro proliferation of LLC cells and macrophages. The assay is classed as cell-based, murine.
For assay [5], the system named is CL66-luc tumor cell. Kind of assay: Cytotoxicity assay, luciferase activity. The assay is classed as cell-based. The note with it: 24, 48 and 72 hrs. On the procedure:
Cytotoxicity Assay—Taxol and LA1 cytotoxicity towards the CL66-luc tumor cell was determined by measuring luciferase activity in the tumor cells after exposure to LA1 or Taxol. CL66-luc cells (1,000 cells/well) were seeded into 96-well plates overnight at 37° C. prior to treatment with titrating concentrations of LA1 or Taxol dissolved in 1% DMSO in IDMEM for 24, 48 and 72 hrs. Cells treated with vehicle (1% DMSO in IDMEM) were a negative control. Media was aspirated from the cultured cells and 100 μL of a 150 μg/mL working solution of D-Luciferin in pre-warmed DMEM (10% FBS) was added to each well. The plates were incubated at 37° C. for 5 mins prior to reading luminescence using the EnSpire Plate Reader (PerkinElmer).

Regarding `O=C(O)c1ccc(-c2ccc(/C=C3\SC(=S)N(Cc4ccccc4)C3=O)o2)cc1` [LA1, leukadherin 1], the “tumor growth after co-implantation of treated macrophages with LLC cells” value in assay [1] is listed as “completely inhibited tumor growth”. The “MDA-MB-231 xenograft tumor growth” value in assay [2] (LA1 2.0 mg/kg i.p. daily) is “suppressed the growth of orthotopic, human MDA-MB-231 mammary xenograft tumors”. Also, in assay [2] (mice which lack T cells), the “MDA-MB-231 tumor growth relative to control treated animals” value worked out at 50%. Besides, the “LLC lung tumor growth in Itgam-/- mice” value in assay [3] (LA1 6 mg/kg i.p. daily, Itgam-/- mice) is “not in Itgam−/− mice”. For the same molecule, in assay [3] (LA1 6 mg/kg i.p. daily, WT mice), the “LLC lung tumor growth in WT mice” value is “inhibited murine LLC lung tumor growth in WT”. Moreover, in assay [3] (LLC tumors), the “CD8+ T cells in tumors” value was “increased the presence of CD8+ T cells”; the “MHCII+ macrophages in tumors” value was “increased the presence of MHCII+ macrophages”; the “expression of S100A8 and MMP9 in CD11b+ cells” value is “inhibited expression of S100A8 and MMP9 in CD11b+ cells in LLC tumors”. For the same molecule, in assay [3] (tumors of FIGS. 5G, 5I and 5J (CL66, MDA-MB-231, LLC)), the “numbers of SMA+ blood vessels in tumors” value was “decreasing the numbers of SMA+blood vessels”. In assay [4], the “LLC or macrophage viability” value is recorded as “no direct effect on LLC or macrophage viability”. The “CL66-Luc breast tumor cell growth in vitro” value in assay [5] was “no effect on CL66-Luc breast tumor cell growth in vitro”.
